Tests used:
Assay in all cases: Kinase activity test (ReactionBiology), % enzyme activity relative to DMSO
Format in all cases: biochemical
NEK2 = biological target: T1, NEK2 (Homo sapiens, UniProt P51955); conditions: NEK2; for % Enzyme Activity (relative to DMSO controls), Data 1: replicate Data 1; for % Enzyme Activity (relative to DMSO controls), Data 2: replicate Data 2;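 on all read-outs here: FDA-approved drugs chosen by structure-based repositioning, each screened at 10 or 1 µM for kinase activity, expressed as percent of DMSO controls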
T1 construct: purchased ReactionBiology
T1 sequence (P51955 1-445): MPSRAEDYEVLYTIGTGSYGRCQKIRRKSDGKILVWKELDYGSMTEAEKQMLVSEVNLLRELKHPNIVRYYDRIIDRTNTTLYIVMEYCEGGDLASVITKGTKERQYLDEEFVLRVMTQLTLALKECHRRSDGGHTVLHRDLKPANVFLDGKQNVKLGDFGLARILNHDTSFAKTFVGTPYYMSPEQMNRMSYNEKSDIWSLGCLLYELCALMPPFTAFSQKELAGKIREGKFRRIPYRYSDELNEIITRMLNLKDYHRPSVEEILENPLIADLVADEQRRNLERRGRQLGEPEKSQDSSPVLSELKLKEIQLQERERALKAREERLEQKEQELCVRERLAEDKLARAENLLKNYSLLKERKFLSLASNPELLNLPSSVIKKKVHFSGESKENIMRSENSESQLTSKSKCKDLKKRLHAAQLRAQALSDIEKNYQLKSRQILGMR

CK1d = biological target: T2, CK1d (Homo sapiens, UniProt P48730); conditions: CK1d; for % Enzyme Activity (relative to DMSO controls), Data 1: replicate Data 1; for % Enzyme Activity (relative to DMSO controls), Data 2: replicate Data 2
T2 construct: purchased ReactionBiology
T2 sequence (P48730 whole entry): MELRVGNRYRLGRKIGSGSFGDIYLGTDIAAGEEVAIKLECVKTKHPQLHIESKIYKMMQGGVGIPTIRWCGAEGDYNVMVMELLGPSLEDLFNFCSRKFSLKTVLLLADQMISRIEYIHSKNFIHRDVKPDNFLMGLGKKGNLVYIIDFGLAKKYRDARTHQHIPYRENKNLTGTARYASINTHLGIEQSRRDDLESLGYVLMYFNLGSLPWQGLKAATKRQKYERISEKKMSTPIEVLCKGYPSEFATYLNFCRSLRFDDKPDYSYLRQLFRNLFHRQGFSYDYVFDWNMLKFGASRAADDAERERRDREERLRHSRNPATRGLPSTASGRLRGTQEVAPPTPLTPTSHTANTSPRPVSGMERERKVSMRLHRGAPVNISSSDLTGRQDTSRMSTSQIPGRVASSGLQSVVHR

EPHB4 = biological target: T3, EPHB4 (Homo sapiens, UniProt P54760); conditions: EPHB4; for % Enzyme Activity (relative to DMSO controls), Data 1: replicate Data 1; for % Enzyme Activity (relative to DMSO controls), Data 2: replicate Data 2;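 on all read-outs here: EPHB4 was one of ten selected kinases in the screening panel, with enzyme activity expressed as a percentage of DMSO controls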
T3 construct: purchased ReactionBiology
T3 sequence (P54760 16-987): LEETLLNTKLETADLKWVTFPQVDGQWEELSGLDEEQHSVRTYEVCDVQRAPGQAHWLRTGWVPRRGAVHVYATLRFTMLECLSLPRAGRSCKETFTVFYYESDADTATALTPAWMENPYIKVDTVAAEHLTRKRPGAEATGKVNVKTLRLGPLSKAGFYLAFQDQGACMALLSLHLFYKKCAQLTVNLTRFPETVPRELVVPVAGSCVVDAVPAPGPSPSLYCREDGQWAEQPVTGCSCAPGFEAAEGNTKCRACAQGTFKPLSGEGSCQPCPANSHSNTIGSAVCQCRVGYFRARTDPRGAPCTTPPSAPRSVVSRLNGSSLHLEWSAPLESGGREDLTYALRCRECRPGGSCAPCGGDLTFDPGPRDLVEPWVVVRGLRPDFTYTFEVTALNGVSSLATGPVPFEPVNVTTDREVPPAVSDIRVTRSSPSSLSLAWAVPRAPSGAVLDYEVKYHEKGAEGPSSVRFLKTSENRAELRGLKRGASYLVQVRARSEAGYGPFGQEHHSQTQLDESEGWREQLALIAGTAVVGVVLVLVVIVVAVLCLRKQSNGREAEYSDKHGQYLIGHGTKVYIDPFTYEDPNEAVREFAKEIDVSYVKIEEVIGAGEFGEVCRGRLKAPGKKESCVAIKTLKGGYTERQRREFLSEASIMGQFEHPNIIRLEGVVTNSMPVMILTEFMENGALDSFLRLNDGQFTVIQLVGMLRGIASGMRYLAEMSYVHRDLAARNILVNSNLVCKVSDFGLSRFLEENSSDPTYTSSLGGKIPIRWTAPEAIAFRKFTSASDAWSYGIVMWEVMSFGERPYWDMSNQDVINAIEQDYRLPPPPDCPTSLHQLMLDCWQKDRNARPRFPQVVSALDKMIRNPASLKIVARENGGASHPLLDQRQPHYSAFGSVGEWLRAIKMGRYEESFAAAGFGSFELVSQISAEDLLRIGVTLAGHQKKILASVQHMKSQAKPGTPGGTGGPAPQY

VEGFR2 = VEGFR2 (Homo sapiens, UniProt P35968); design: purchased ReactionBiology; conditions: VEGFR2; for % Enzyme Activity (relative to DMSO controls), Data 1: replicate Data 1; for % Enzyme Activity (relative to DMSO controls), Data 2: replicate Data 2;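 on all read-outs here: VEGFR2 was one member of a ten-kinase screening panel testing marketed FDA-approved drugs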
VEGFR2, sequence (P35968 20-1356): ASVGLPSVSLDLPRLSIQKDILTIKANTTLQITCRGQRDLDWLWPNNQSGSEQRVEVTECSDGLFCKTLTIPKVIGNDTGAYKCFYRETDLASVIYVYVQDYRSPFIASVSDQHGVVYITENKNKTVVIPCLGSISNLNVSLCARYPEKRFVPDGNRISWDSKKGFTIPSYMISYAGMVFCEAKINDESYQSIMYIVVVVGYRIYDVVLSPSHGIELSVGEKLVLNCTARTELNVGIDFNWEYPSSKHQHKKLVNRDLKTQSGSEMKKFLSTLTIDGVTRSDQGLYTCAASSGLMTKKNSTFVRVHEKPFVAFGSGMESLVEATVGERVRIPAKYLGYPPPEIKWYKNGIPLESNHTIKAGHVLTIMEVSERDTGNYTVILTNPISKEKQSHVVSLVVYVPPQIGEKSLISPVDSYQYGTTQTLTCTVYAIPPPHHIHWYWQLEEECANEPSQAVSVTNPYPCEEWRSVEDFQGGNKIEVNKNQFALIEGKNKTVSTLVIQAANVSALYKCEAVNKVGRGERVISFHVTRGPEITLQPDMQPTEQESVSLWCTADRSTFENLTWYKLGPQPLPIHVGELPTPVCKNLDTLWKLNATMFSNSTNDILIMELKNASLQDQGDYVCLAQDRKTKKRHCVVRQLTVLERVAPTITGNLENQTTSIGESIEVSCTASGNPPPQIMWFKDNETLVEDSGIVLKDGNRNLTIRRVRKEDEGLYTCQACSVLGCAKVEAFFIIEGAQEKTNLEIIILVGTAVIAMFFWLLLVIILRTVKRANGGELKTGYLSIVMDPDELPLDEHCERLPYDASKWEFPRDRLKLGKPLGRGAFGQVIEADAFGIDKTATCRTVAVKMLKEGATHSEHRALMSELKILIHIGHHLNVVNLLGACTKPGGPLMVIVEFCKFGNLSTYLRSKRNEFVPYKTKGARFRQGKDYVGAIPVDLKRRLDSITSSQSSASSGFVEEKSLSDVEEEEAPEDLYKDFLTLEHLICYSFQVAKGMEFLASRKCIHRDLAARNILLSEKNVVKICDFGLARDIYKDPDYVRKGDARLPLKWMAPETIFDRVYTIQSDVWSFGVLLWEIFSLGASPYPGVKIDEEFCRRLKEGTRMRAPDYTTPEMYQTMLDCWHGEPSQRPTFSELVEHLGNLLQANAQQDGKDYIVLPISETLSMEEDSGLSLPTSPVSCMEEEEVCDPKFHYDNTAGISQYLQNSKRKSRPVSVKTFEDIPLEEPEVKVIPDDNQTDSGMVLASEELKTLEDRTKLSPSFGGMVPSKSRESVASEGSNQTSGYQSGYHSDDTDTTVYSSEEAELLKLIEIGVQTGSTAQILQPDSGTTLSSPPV

DAPK1 = biological target: T4, DAPK1 (Homo sapiens, UniProt P53355); conditions: DAPK1; for % Enzyme Activity (relative to DMSO controls), Data 1: replicate Data 1; for % Enzyme Activity (relative to DMSO controls), Data 2: replicate Data 2
T4 construct: purchased ReactionBiology
T4 sequence (P53355 whole entry): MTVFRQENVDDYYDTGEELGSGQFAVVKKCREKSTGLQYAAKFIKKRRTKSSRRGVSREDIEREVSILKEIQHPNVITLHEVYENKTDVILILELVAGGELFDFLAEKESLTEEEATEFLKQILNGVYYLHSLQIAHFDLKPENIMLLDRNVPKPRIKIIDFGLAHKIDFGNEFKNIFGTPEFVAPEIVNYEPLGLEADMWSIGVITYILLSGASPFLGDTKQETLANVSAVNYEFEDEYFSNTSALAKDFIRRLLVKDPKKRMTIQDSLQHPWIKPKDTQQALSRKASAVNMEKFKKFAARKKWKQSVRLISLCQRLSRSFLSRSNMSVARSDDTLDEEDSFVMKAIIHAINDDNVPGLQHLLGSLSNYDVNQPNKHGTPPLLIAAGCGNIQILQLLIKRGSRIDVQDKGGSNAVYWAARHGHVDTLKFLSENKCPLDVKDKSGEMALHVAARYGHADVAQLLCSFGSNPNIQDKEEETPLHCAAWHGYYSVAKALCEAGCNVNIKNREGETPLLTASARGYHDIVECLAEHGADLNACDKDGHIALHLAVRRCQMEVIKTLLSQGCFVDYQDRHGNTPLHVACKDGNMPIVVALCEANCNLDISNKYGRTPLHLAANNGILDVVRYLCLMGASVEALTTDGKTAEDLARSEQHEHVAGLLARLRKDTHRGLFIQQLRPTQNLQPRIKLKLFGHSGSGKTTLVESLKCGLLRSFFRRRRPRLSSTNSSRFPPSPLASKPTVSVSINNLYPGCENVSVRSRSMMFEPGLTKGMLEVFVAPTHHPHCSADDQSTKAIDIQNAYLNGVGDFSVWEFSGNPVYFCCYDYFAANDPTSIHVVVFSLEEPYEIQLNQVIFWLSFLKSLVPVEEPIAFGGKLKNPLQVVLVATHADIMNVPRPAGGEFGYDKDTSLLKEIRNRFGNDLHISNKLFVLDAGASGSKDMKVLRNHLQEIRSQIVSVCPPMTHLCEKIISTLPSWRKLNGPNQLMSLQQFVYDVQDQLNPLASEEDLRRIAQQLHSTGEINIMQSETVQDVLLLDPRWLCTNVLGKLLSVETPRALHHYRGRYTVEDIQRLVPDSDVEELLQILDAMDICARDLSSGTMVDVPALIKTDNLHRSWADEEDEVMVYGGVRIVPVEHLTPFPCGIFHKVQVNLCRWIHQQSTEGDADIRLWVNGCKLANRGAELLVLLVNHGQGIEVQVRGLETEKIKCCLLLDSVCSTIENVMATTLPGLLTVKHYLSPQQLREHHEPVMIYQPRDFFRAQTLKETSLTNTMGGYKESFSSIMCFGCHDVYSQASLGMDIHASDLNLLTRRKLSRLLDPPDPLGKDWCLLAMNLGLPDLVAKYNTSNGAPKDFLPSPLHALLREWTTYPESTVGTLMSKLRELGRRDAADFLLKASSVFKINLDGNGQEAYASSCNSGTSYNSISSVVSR

Compound	% Enzyme Activity (relative to DMSO controls), Average (NEK2; 1 uM)	% Enzyme Activity (relative to DMSO controls), Data 1 (NEK2; 1 uM)	% Enzyme Activity (relative to DMSO controls), Data 2 (NEK2; 1 uM)	% Enzyme Activity (relative to DMSO controls), Average (NEK2; 10 uM)	% Enzyme Activity (relative to DMSO controls), Data 1 (NEK2; 10 uM)	% Enzyme Activity (relative to DMSO controls), Data 2 (NEK2; 10 uM)	% Enzyme Activity (relative to DMSO controls), Average (CK1d; 1 uM)	% Enzyme Activity (relative to DMSO controls), Data 1 (CK1d; 1 uM)	% Enzyme Activity (relative to DMSO controls), Data 2 (CK1d; 1 uM)	% Enzyme Activity (relative to DMSO controls), Average (CK1d; 10 uM)	% Enzyme Activity (relative to DMSO controls), Data 1 (CK1d; 10 uM)	% Enzyme Activity (relative to DMSO controls), Data 2 (CK1d; 10 uM)	% Enzyme Activity (relative to DMSO controls), Average (EPHB4; 1 uM)	% Enzyme Activity (relative to DMSO controls), Data 1 (EPHB4; 1 uM)	% Enzyme Activity (relative to DMSO controls), Data 2 (EPHB4; 1 uM)	% Enzyme Activity (relative to DMSO controls), Average (EPHB4; 10 uM)	% Enzyme Activity (relative to DMSO controls), Data 1 (EPHB4; 10 uM)	% Enzyme Activity (relative to DMSO controls), Data 2 (EPHB4; 10 uM)	% Enzyme Activity (relative to DMSO controls), Data 1 (VEGFR2; 1 uM)	% Enzyme Activity (relative to DMSO controls), Data 1 (VEGFR2; 10 uM)	other results
O=C(O)c1cc(-c2ccc(F)cc2F)ccc1O [Diflunisal]	92.13%	87.06%	97.20%	102.79%	100.11%	105.46%	189.68%	106.89%	272.47%	105.59%	104.76%	106.42%									
C[C@H]1O[C@@H](O[C@H]2[C@@H](O)C[C@H](O[C@H]3[C@@H](O)C[C@H](O[C@H]4CC[C@@]5(C)[C@H](CC[C@@H]6[C@@H]5C[C@@H](O)[C@]5(C)[C@@H](C7=CC(=O)OC7)CC[C@]65O)C4)O[C@@H]3C)O[C@@H]2C)C[C@H](O)[C@@H]1O [Digoxin]							103.51%	105.62%	101.39%	100.70%	102.31%	99.09%	101.58%	99.88%	103.27%	92.84%	91.71%	93.96%			
COc1ccc2c3c1O[C@H]1C[C@@H](O)C=C[C@@]31CCN(C)C2 [Galantamine]													104.29%	104.73%	103.85%	94.53%	95.37%	93.68%	106.14%	95.78%	% Enzyme Activity (relative to DMSO controls), Average (VEGFR2; 1 uM): 103.82%; % Enzyme Activity (relative to DMSO controls), Data 2 (VEGFR2; 1 uM): 101.5%; % Enzyme Activity (relative to DMSO controls), Average (VEGFR2; 10 uM): 93.22%; % Enzyme Activity (relative to DMSO controls), Data 2 (VEGFR2; 10 uM): 90.65%
N[C@H]1C(O)O[C@H](CO)[C@@H](O)[C@@H]1O (some centres unmarked) [Glucosamine]	82.84%	79.92%	85.75%	95.78%	90.86%	100.69%															% Enzyme Activity (relative to DMSO controls), Average (DAPK1; 1 uM): 102.43%; % Enzyme Activity (relative to DMSO controls), Data 1 (DAPK1; 1 uM): 102.25%; % Enzyme Activity (relative to DMSO controls), Data 2 (DAPK1; 1 uM): 102.61%; % Enzyme Activity (relative to DMSO controls), Average (DAPK1; 10 uM): 123.43%; % Enzyme Activity (relative to DMSO controls), Data 1 (DAPK1; 10 uM): 142.72%; % Enzyme Activity (relative to DMSO controls), Data 2 (DAPK1; 10 uM): 104.13%
O=C1c2cccc3c2[C@H](CCC3)CN1[C@@H]1CN2CCC1CC2 [Palonosetron]													97.11%	97.96%	96.26%	88.19%	86.49%	89.88%			
CCCCC1C(=O)N(c2ccccc2)N(c2ccccc2)C1=O [Phenylbutazone]													101.67%	102.42%	100.92%	94.49%	94.37%	94.61%	102.9%	86.33%	% Enzyme Activity (relative to DMSO controls), Average (VEGFR2; 1 uM): 106.05%; % Enzyme Activity (relative to DMSO controls), Data 2 (VEGFR2; 1 uM): 109.19%; % Enzyme Activity (relative to DMSO controls), Average (VEGFR2; 10 uM): 96.15%; % Enzyme Activity (relative to DMSO controls), Data 2 (VEGFR2; 10 uM): 105.96%
CCc1nc(N)nc(N)c1-c1ccc(Cl)cc1 [Pyrimethamine]	106.09%	107.69%	104.49%	102.63%	102.17%	103.08%	93.71%	95.24%	92.18%	84.36%	85.89%	82.82%							104.33%	106.39%	% Enzyme Activity (relative to DMSO controls), Average (VEGFR2; 1 uM): 107.43%; % Enzyme Activity (relative to DMSO controls), Data 2 (VEGFR2; 1 uM): 110.52%; % Enzyme Activity (relative to DMSO controls), Average (VEGFR2; 10 uM): 102.76%; % Enzyme Activity (relative to DMSO controls), Data 2 (VEGFR2; 10 uM): 99.13%
CCCc1nn(C)c2c(=O)[nH]c(-c3cc(S(=O)(=O)N4CCN(C)CC4)ccc3OCC)nc12 [Sildenafil]		95.77%			85.23%			107.72%											112.59%	111.96%	
C/C(O)=C(\C#N)C(=O)Nc1ccc(C(F)(F)F)cc1 [Teriflunomide]													101.51%	102.27%	100.74%	94.56%	96.08%	93.04%			
